# Experimental data from article PMC5817390 (The Pharmacogenomics Journal, 2016).
# Like-named read-outs stand apart in the source and are kept apart here.
# Columns and labels:
# [1] = cited from earlier work
# [2] = tested on: P-glycoprotein (P-gp; MDR1); conditions: in vitro studies; cited from earlier work
# [3] = single 60-mg dose, healthy subjects, 14 phase 1 studies; cited from earlier work
# [4] = type: in vivo, human (healthy subjects); conditions: for AUC(0-inf): AUCinf
# [5] = on a molar basis; ref data on file; cited from earlier work
# [6] = tested on: organic anion transporter protein 1B1 (OATP1B1); conditions: in vitro studies; cited from earlier work
# [7] = healthy volunteers; cited from earlier work
# [8] = ABCB1 rs1045642 CT, single 60-mg edoxaban, mean±s.d.
# [9] = SLCO1B1 rs4149056 C-carriers, single 60-mg edoxaban, mean±s.d.
# [10] = SLCO1B1 rs4149056 TT, single 60-mg edoxaban, mean±s.d.
# [11] = single 60-mg edoxaban, healthy subjects
# [12] = SLCO1B1 rs4149056 C-carriers vs TT homozygotes, with 90% CI
# [13] = SLCO1B1 rs4149056 TT, M4 to edoxaban, adjusted for molecular weights, mean±s.d.
structure (smiles),measurement,setting,value
"CN1CCc2nc(C(=O)N[C@@H]3C[C@@H](C(=O)N(C)C)CC[C@@H]3NC(=O)C(=O)Nc3ccc(Cl)cn3)sc2C1 [Edoxaban, edoxaban]",absorbed dose renally eliminated,[1],~ 50%
same,absorbed drug eliminated unmodified,[1],~73%
same,substrate of P-glycoprotein,[2],substrate
same,tolerability,[3],generally well tolerated
same,AUC0–24,[4]; [8],1671 ± 420.3 ng·h/mL
same,AUCinf,[4]; [8],1845 ± 417.8 ng·h/mL
same,AUC0–24,[4]; [9],1643.8 ± 392.9 ng·h/mL
same,AUCinf,[4]; [9],1815.5 ± 382.4 ng·h/mL
same,AUC0–24,[4]; [10],1644.1 ± 440.6 ng·h/mL
same,AUCinf,[4]; [10],1823.5 ± 444.9 ng·h/mL
same,AUC(0-t),"[4]; both, human, in vivo, 60 mg, AUC0–24, ABCB1 rs1045642 CC, single 60-mg edoxaban, mean±s.d.",1610 ± 441 ng·h/mL
same,AUC(0-t),"[4]; both, human, in vivo, 60 mg, AUC0–24, ABCB1 rs1045642 TT, single 60-mg edoxaban, mean±s.d.",1680 ± 442 ng·h/mL
same,AUC(0-inf),"[4]; both, human, in vivo, 60 mg, ABCB1 rs1045642 CC, single 60-mg edoxaban, mean±s.d.",1790 ± 450 ng·h/mL
same,AUC(0-inf),"[4]; both, human, in vivo, 60 mg, ABCB1 rs1045642 TT, single 60-mg edoxaban, mean±s.d.",1860 ± 436 ng·h/mL
same,AUC(0-t),"[4]; both, human, in vivo, 60 mg, AUClast, ABCB1 rs1045642 CC, single 60-mg edoxaban, fasting, plasma, mean±s.d.",1760 ± 447 ng·h/mL
same,AUC(0-t),"[4]; both, human, in vivo, 60 mg, AUClast, ABCB1 rs1045642 CT, single 60-mg edoxaban, fasting, plasma, mean±s.d.",1810 ± 417 ng·h/mL
same,AUC(0-t),"[4]; both, human, in vivo, 60 mg, AUClast, ABCB1 rs1045642 TT, single 60-mg edoxaban, fasting, plasma, mean±s.d.",1820 ± 435 ng·h/mL
same,AUC(0-t),"[4]; both, human, in vivo, 60 mg, AUClast, SLCO1B1 rs4149056 C-carriers, single 60-mg edoxaban, mean±s.d.",1780 ± 381 ng·h/mL
same,AUC(0-t),"[4]; both, human, in vivo, 60 mg, AUClast, SLCO1B1 rs4149056 TT, single 60-mg edoxaban, mean±s.d.",1790 ± 443 ng·h/mL
same,concentration at 24 h,"[4]; both, human, in vivo, 60 mg, C24, ABCB1 rs1045642 CC, plasma concentration at 24 h postdose, single 60-mg edoxaban, mean±s.d.",12.5 ± 5.11 ng/mL
same,concentration at 24 h,"[4]; both, human, in vivo, 60 mg, C24, ABCB1 rs1045642 TT, plasma concentration at 24 h postdose, single 60-mg edoxaban, mean±s.d.",12.3 ± 6.46 ng/mL
same,concentration at 24 h,"[4]; both, human, in vivo, 60 mg, C24, SLCO1B1 rs4149056 C-carriers, 24 h postdose, single 60-mg edoxaban, mean±s.d.",11.6 ± 4.8 ng/mL
same,concentration at 24 h,"[4]; both, human, in vivo, 60 mg, C24, SLCO1B1 rs4149056 TT, 24 h postdose, single 60-mg edoxaban, mean±s.d.",12.3 ± 5.4 ng/mL
same,Cmax,"[4]; both, human, in vivo, 60 mg, Cmax, ABCB1 rs1045642 TT, single 60-mg edoxaban, mean±s.d.",261 ± 101 ng/mL
same,effect of ABCB1 C3435T SNP on exposure,[4]; [11],does not significantly affect
same,effect of SLCO1B1 T521C SNP on exposure,[4]; [11],does not influence
CN1CCc2nc(C(=O)N[C@@H]3C[C@@H](C(=O)O)CC[C@@H]3NC(=O)C(=O)Nc3ccc(Cl)cn3)sc2C1 [M4],share of the total anticoagulant exposure,[1],< 10%
same,anticoagulant activity compared with edoxaban,[5],similar
same,"geometric LS means ratio, AUCinf",[4]; [12],"126.9 (90% CI, 117.4–137.1)"
same,"geometric LS means ratio, C24",[4]; [12],"114.9 (90% CI, 104.0–127.0)"
same,"geometric LS means ratio, Cmax",[4]; [12],"124.1 (90% CI, 111.9–137.5)"
same,C24,"[4]; SLCO1B1 rs4149056 C-carriers, 24 h postdose, single 60-mg edoxaban, mean±s.d.",1.3 ± 0.74 ng/mL
same,AUC0–24,[4]; [9],170.0 ± 73.0 ng·h/mL
same,AUCinf,[4]; [9],191.9 ± 76.4 ng·h/mL
same,AUClast,[4]; [9],184.6 ± 75.6 ng·h/mL
same,Cmax,[4]; [9],26.7 ± 13.6 ng/mL
same,C24,"[4]; SLCO1B1 rs4149056 TT, 24 h postdose, single 60-mg edoxaban, mean±s.d.",1.1 ± 0.57 ng/mL
same,MPR AUCinf (metabolite to parent ratio),[4]; [13],8.7±2.9
same,MPR AUClast (metabolite to parent ratio),[4]; [13],8.7±2.9
same,MPR Cmax (metabolite to parent ratio),[4]; [13],8.8±3.1
same,AUC0–24,[4]; [10],134.7 ± 57.2 ng·h/mL
same,AUCinf,[4]; [10],150.2 ± 61.4 ng·h/mL
same,AUClast,[4]; [10],147.1 ± 60.7 ng·h/mL
same,Cmax,[4]; [10],21.2 ± 10.7 ng/mL
same,plasma M4 concentration as share of edoxaban levels,"[4]; plasma, healthy subjects",< 10%
same,effect of SLCO1B1 T521C SNP on exposure,[4]; [11],elevated among C-carriers
same,substrate of OATP1B1,[6],substrate
same,levels on coadministration of cyclosporine or rifampin,[7],increase
